# Source: patent US20200055897A1, “MODIFIED PEPTOIDS” (Technion Research & Development Foundation Limited, priority 2017, published 2020)
# Starred links: 1 amine or outer side, 2 acyl side, 3 side chain; linkers in the order of their positions; H or OH if unused. Non-standard residues stand in square brackets, D forms with d. Residues, ends and D or L forms follow the SMILES beside them. *: point of attachment. N(1S-cyclohexylethyl)Gly = C[C@H](NCC(=O)O)C1CCCCC1; Gly(N-CH2CH2C6H4-4Cl) = O=C(O)CNCCc1ccc(Cl)cc1; NMeGly(N-(2-F-benzyl)) = CN(CC(=O)*)Cc1ccccc1F; Acetyl(2-(piperazin-1-yl)) = O=C(CN1CCNCC1)*; Hydrazinoacetyl = O=C(CNN[*:1])[*:2]; Gly(Nα-NHCO2Et) = CCOC(=O)NNCC(=O)O; Nrpe = C[C@@H](NCC(=O)O)c1ccccc1; Nspe = C[C@H](NCC(=O)O)c1ccccc1; X1 = O=C(CN1CCN([*:1])CC1)[*:2]; Ethoxycarbonyl = CCOC(=O)*; Nphe = O=C(O)CNCc1ccccc1; X5 = NC(=O)CN1CCN(*)CC1; X3 = O=C(CN1CCCNCC1)*
# Test: General method for water solubility test (gradual addition of water to 1 mg peptoid until clear)
# Assay type: physicochemical
# Settings: not given
# Procedure: 1 mg peptoid was placed in an Eppendorf container and water was added gradually (e.g., […] per addition) until a clear solution was obtained. The solubility test was repeated three times and average values are presented. The limit of the test was typically 2.0×10^2 mg/liter (i.e., 1 mg per 5 ml).
# Water solubility tests were carried out by a gradual addition of 5 μl distilled water to 1 mg peptoid until a clear solution was obtained. This assay was repeated three times and results were averaged.
solubility,Water solubility relative to that of P2,Compound
< 0.2 mg/mL,,"C[C@H](NCC(=O)N(CC(=O)N(CC(=O)N(CC(=O)N(CC(=O)N(CC(N)=O)[C@@H](C)c1ccccc1)[C@@H](C)c1ccccc1)[C@@H](C)c1ccccc1)[C@@H](C)c1ccccc1)[C@@H](C)c1ccccc1)c1ccccc1 [Peptoid P1, (Nspe)6, reference compound] (H-[Nspe][Nspe][Nspe][Nspe][Nspe][Nspe]-NH2)"
< 0.2 mg/mL,,"C[C@H](c1ccccc1)N(CCC(N)=O)C(=O)CCN(C(=O)CCN(C(=O)CCN(C(=O)CCN(C(=O)CCN[C@H](C)c1ccccc1)[C@H](C)c1ccccc1)[C@H](C)c1ccccc1)[C@H](C)c1ccccc1)[C@H](C)c1ccccc1 [Peptoid P24, reference compound]"
7.52 mg/mL,,"C[C@@H](C1CCCCC1)N(CC(N)=O)C(=O)CN(C(=O)CN(C(=O)CN(C(=O)CN(C(=O)CN1CCN(C(=O)CN2CCNCC2)CC1)[C@@H](C)C1CCCCC1)[C@@H](C)C1CCCCC1)[C@@H](C)C1CCCCC1)[C@@H](C)C1CCCCC1 [Peptoid P19, (Nsch)5-(Npz)2] ({Acetyl(2-(piperazin-1-yl))}-[X1][N(1S-cyclohexylethyl)Gly][N(1S-cyclohexylethyl)Gly][N(1S-cyclohexylethyl)Gly][N(1S-cyclohexylethyl)Gly][N(1S-cyclohexylethyl)Gly]-NH2)"
< 0.2 mg/mL,,"C[C@@H](c1cccc2ccccc12)N(CC(N)=O)C(=O)CN(C(=O)CN(C(=O)CN(C(=O)CN1CCCNCC1)[C@@H](C)c1cccc2ccccc12)[C@@H](C)c1cccc2ccccc12)[C@@H](C)c1cccc2ccccc12 [Peptoid P14, (Ns1npe)4-Nhpz]"
< 0.2 mg/mL,,C[C@H](c1ccccc1)N(CCC(N)=O)C(=O)CCN(C(=O)CCN(C(=O)CCN(C(=O)CCN(C(=O)CCN(C(=O)CN1CCNCC1)[C@H](C)c1ccccc1)[C@H](C)c1ccccc1)[C@H](C)c1ccccc1)[C@H](C)c1ccccc1)[C@H](C)c1ccccc1 [Peptoid P25]
< 0.2 mg/mL,,"C[C@@H](c1cccc2ccccc12)N(CC(N)=O)C(=O)CN(C(=O)CN(C(=O)CN(C(=O)CN1CCNCC1)[C@@H](C)c1cccc2ccccc12)[C@@H](C)c1cccc2ccccc12)[C@@H](C)c1cccc2ccccc12 [Peptoid P12, (Ns1npe)4-Npz]"
84.4 mg/mL,,"C[C@@H](C1CCCCC1)N(CC(=O)N(CCc1ccc(Cl)cc1)CC(=O)N(CC(=O)N(CC(=O)N(CC(=O)N1CCN(CC(=O)N2CCN(CC(N)=O)CC2)CC1)Cc1ccccc1)Cc1ccccc1)[C@@H](C)C1CCCCC1)C(=O)CN(C)Cc1ccccc1F [Peptoid P20, (Npz)2-(Npm)2-Nsch-Ncpe-Nsch-Nfpm] ({NMeGly(N-(2-F-benzyl))}-[N(1S-cyclohexylethyl)Gly][Gly(N-CH2CH2C6H4-4Cl)][N(1S-cyclohexylethyl)Gly][Nphe][Nphe][X1]-X5)"
< 0.2 mg/mL,,"C[C@H](NCC(=O)N(CC(=O)N(CC(=O)N(CC(=O)N1CCN(CC(N)=O)CC1)[C@@H](C)c1cccc2ccccc12)[C@@H](C)c1cccc2ccccc12)[C@@H](C)c1cccc2ccccc12)c1cccc2ccccc12 [Peptoid P13, Npz-(Ns1npe)4]"
< 0.2 mg/mL,,"C[C@@H](C1CCCCC1)N(CC(=O)N(CCc1ccc(Cl)cc1)CC(=O)N(CC(=O)N(CC(=O)N(CC(N)=O)Cc1ccccc1)Cc1ccccc1)[C@@H](C)C1CCCCC1)C(=O)CN(C)Cc1ccccc1F [Peptoid P11, (Npm)2-Nsch-Ncpe-Nsch-Nfpm, reference compound] ({NMeGly(N-(2-F-benzyl))}-[N(1S-cyclohexylethyl)Gly][Gly(N-CH2CH2C6H4-4Cl)][N(1S-cyclohexylethyl)Gly][Nphe][Nphe]-NH2)"
73.5 mg/mL,,"C[C@@H](C1CCCCC1)N(CC(N)=O)C(=O)CN(C(=O)CN(C(=O)CN(C(=O)CN(C(=O)CN1CCN(C(=O)CN2CCN(C(=O)CN3CCNCC3)CC2)CC1)[C@@H](C)C1CCCCC1)[C@@H](C)C1CCCCC1)[C@@H](C)C1CCCCC1)[C@@H](C)C1CCCCC1 [Peptoid P22, (Nsch)5-(Npz)3] ({Acetyl(2-(piperazin-1-yl))}-[X1][X1][N(1S-cyclohexylethyl)Gly][N(1S-cyclohexylethyl)Gly][N(1S-cyclohexylethyl)Gly][N(1S-cyclohexylethyl)Gly][N(1S-cyclohexylethyl)Gly]-NH2)"
135 mg/mL,,"C[C@@H](C1CCCCC1)N(CC(=O)N(CCc1ccc(Cl)cc1)CC(=O)N(CC(=O)N(CC(=O)N(CC(=O)N1CCN(CC(=O)N2CCN(CC(=O)N3CCN(CC(N)=O)CC3)CC2)CC1)Cc1ccccc1)Cc1ccccc1)[C@@H](C)C1CCCCC1)C(=O)CN(C)Cc1ccccc1F [Peptoid P23, (Npz)3-(Npm)2-Nsch-Ncpe-Nsch-Nfpm] ({NMeGly(N-(2-F-benzyl))}-[N(1S-cyclohexylethyl)Gly][Gly(N-CH2CH2C6H4-4Cl)][N(1S-cyclohexylethyl)Gly][Nphe][Nphe][X1][X1]-X5)"
50.6 mg/mL,,CCOC(=O)NN(CC(=O)N(CC(N)=O)[C@H](C)c1ccccc1)C(=O)CN(C(=O)CN(NC(=O)OCC)C(=O)CN(C(=O)CN(NC(=O)OCC)C(=O)CN1CCNCC1)[C@H](C)c1ccccc1)[C@H](C)c1ccccc1 [Peptoid P29] ({Acetyl(2-(piperazin-1-yl))}-[Gly(Nα-NHCO2Et)][Nrpe][Gly(Nα-NHCO2Et)][Nrpe][Gly(Nα-NHCO2Et)][Nrpe]-NH2)
< 0.2 mg/mL,,"C[C@H](NCC(=O)N(CC(=O)N(CC(=O)N(CC(N)=O)[C@@H](C)c1cccc2ccccc12)[C@@H](C)c1cccc2ccccc12)[C@@H](C)c1cccc2ccccc12)c1cccc2ccccc12 [Peptoid P9, (Ns1npe)4, reference compound]"
< 0.2 mg/mL,,"C[C@@H](C1CCCCC1)N(CC(N)=O)C(=O)CN(C(=O)CN(C(=O)CN(C(=O)CN(C(=O)CN1CCCNCC1)[C@@H](C)C1CCCCC1)[C@@H](C)C1CCCCC1)[C@@H](C)C1CCCCC1)[C@@H](C)C1CCCCC1 [Peptoid P16, (Nsch)5-Nhpz]"
< 0.2 mg/mL,,"C[C@@H](C1CCCCC1)N(CC(=O)N(CCc1ccc(Cl)cc1)CC(=O)N(CC(=O)N(CC(=O)N(CC(=O)N1CCN(CC(N)=O)CC1)Cc1ccccc1)Cc1ccccc1)[C@@H](C)C1CCCCC1)C(=O)CN(C)Cc1ccccc1F [Peptoid P17, Npz-(Npm)2-Nsch-Ncpe-Nsch-Nfpm] ({NMeGly(N-(2-F-benzyl))}-[N(1S-cyclohexylethyl)Gly][Gly(N-CH2CH2C6H4-4Cl)][N(1S-cyclohexylethyl)Gly][Nphe][Nphe]-X5)"
103 mg/mL,,C[C@H](c1ccccc1)N(CCC(N)=O)C(=O)CCN(C(=O)CCN(C(=O)CCN(C(=O)CCN(C(=O)CCN(C(=O)CN1CCN(C(=O)CN2CCNCC2)CC1)[C@H](C)c1ccccc1)[C@H](C)c1ccccc1)[C@H](C)c1ccccc1)[C@H](C)c1ccccc1)[C@H](C)c1ccccc1 [Peptoid P26]
< 0.2 mg/mL,,"C[C@@H](C1CCCCC1)N(CC(N)=O)C(=O)CN(C(=O)CN(C(=O)CN(C(=O)CN(C(=O)CN1CCNCC1)[C@@H](C)C1CCCCC1)[C@@H](C)C1CCCCC1)[C@@H](C)C1CCCCC1)[C@@H](C)C1CCCCC1 [Peptoid P15, (Nsch)5-Npz]"
< 0.2 mg/mL,,"C[C@H](NCC(=O)N(CC(=O)N(CC(=O)N(CC(=O)N(CC(N)=O)[C@@H](C)C1CCCCC1)[C@@H](C)C1CCCCC1)[C@@H](C)C1CCCCC1)[C@@H](C)C1CCCCC1)C1CCCCC1 [Peptoid P10, (Nsch)5, reference compound]"
177 mg/mL,,CCOC(=O)NN(CC(=O)N(CC(N)=O)[C@H](C)c1ccccc1)C(=O)CN(C(=O)CN(NC(=O)OCC)C(=O)CN(C(=O)CN(NC(=O)OCC)C(=O)CN1CCN(C(=O)CN2CCNCC2)CC1)[C@H](C)c1ccccc1)[C@H](C)c1ccccc1 [Peptoid P30] ({Acetyl(2-(piperazin-1-yl))}-[X1][Gly(Nα-NHCO2Et)][Nrpe][Gly(Nα-NHCO2Et)][Nrpe][Gly(Nα-NHCO2Et)][Nrpe]-NH2)
< 0.2 mg/mL,,"CCOC(=O)NNCC(=O)N(CC(=O)N(CC(=O)N(CC(=O)N(CC(=O)N(CC(N)=O)[C@H](C)c1ccccc1)NC(=O)OCC)[C@H](C)c1ccccc1)NC(=O)OCC)[C@H](C)c1ccccc1 [Peptoid P28, reference compound] (Ethoxycarbonyl-[Hydrazinoacetyl][Nrpe][Gly(Nα-NHCO2Et)][Nrpe][Gly(Nα-NHCO2Et)][Nrpe]-NH2)"
~700 µM,,"C[C@@H](c1ccccc1)N1CC(=O)N(CC(N)=O)CCCN2CCN(CC2)CC(=O)N([C@@H](C)c2ccccc2)CC(=O)N([C@@H](C)c2ccccc2)CC(=O)N([C@@H](C)c2ccccc2)CC(=O)N([C@@H](C)c2ccccc2)CC(=O)N([C@@H](C)c2ccccc2)CC1=O [Peptoid P4, Npl-(Nspe)6-Npz (cyclic)]"
~900 µM,,"C[C@H](NCC(=O)N(CC(=O)N(CC(=O)N(CC(=O)N(CC(=O)N(CC(=O)N1CCN(CC(N)=O)CC1)[C@@H](C)c1ccccc1)[C@@H](C)c1ccccc1)[C@@H](C)c1ccccc1)[C@@H](C)c1ccccc1)[C@@H](C)c1ccccc1)c1ccccc1 [Peptoid P3, Npz-(Nspe)6] (H-[Nspe][Nspe][Nspe][Nspe][Nspe][Nspe]-X5)"
49.6 mg/mL,about 50 times,"C[C@@H](c1ccccc1)N(CC(N)=O)C(=O)CN(C(=O)CN(C(=O)CN(C(=O)CN(C(=O)CN(C(=O)CN1CCCNCC1)[C@@H](C)c1ccccc1)[C@@H](C)c1ccccc1)[C@@H](C)c1ccccc1)[C@@H](C)c1ccccc1)[C@@H](C)c1ccccc1 [Peptoid P7, (Nspe)6-Nhpz] (X3-[Nspe][Nspe][Nspe][Nspe][Nspe][Nspe]-NH2)"

# Same assay, conditions: water; average of three tests; limit of test 2.0×10^2 mg/liter; read-out: Water solubility
row,Compound,solubility [mg/mL]
1,C[C@H](c1ccccc1)N(CCC(N)=O)C(=O)CCN(C(=O)CCN(C(=O)CCN(C(=O)CCN(C(=O)CCN(C(=O)CN1CCN(C(=O)CN2CCN(C(=O)CN3CCNCC3)CC2)CC1)[C@H](C)c1ccccc1)[C@H](C)c1ccccc1)[C@H](C)c1ccccc1)[C@H](C)c1ccccc1)[C@H](C)c1ccccc1 [Peptoid P27],196
